Values joined by “and” are separate entries in the source; they are usually repeats but may differ in a detail not shown here. Equal entries are not always repeated. Where two headings read alike, the source gives them in different places. *1 amine or outer side, *2 acyl side, *3 side chain or, on linkers, in order; H or OH if unused. Where a SMILES comes first, the peptide text is derived from it. Side-chain parts run from the residue outwards. The star is where a group is joined. C18 diacid = O=C(O)CCCCCCCCCCCCCCCCC(=O)*; γGlu = O=C(O)[C@H](CCC(=O)[*:2])N[*:1]; AEEA = NCCOCCOCC(=O)O
Assays:
Format in all cases: cell-based
human SNP-tagged GLP-2R = molecular target: T1, human SNP-tagged GLP-2R (Homo sapiens, UniProt O95838); experiment: Receptor internalization assay, HEK293A cells expressing human SNAP-tagged GLP-2R; settings: for Absolute hGLP-2R internalization (AUC): AUC of sigmoid curves up to 1 μM, 60 minutes at 37° C.; for Relative hGLP-2R internalization (%): relative to native ligand = 100
T1 construct: expressed in transfected cells; host or cells: HEK293A
T1 sequence (O95838 1-553): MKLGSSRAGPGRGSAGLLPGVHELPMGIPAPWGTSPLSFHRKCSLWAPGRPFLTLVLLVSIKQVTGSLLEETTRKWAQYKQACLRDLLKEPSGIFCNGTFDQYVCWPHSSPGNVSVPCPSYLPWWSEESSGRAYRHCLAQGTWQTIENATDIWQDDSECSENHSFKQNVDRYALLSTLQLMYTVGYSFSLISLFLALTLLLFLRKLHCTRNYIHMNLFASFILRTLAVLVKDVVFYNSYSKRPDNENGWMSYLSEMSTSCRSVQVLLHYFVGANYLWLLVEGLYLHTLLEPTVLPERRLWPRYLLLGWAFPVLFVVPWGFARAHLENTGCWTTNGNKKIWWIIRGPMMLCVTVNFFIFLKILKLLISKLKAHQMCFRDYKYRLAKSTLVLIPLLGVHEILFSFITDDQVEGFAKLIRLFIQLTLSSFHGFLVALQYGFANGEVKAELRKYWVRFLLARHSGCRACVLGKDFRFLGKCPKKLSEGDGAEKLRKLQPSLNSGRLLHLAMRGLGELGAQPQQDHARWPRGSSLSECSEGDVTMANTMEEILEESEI

human GLP-2R = molecular target: T2, human GLP-2R (Homo sapiens, UniProt O95838); experiment: cAMP assay (HitHunter) in transiently transfected COS-7 cells expressing human GLP-2R
T2 construct: host or cells: COS-7
T2 sequence (O95838 1-553): T1 sequence (O95838 1-553)

human SNAP-tagged GIPR = molecular target: T3, human SNAP-tagged GIPR (Homo sapiens, UniProt P48546); experiment: Receptor internalization assay, HEK293A cells expressing human SNAP-tagged GIPR
T3 construct: host or cells: HEK293A
T3 sequence (P48546 22-466): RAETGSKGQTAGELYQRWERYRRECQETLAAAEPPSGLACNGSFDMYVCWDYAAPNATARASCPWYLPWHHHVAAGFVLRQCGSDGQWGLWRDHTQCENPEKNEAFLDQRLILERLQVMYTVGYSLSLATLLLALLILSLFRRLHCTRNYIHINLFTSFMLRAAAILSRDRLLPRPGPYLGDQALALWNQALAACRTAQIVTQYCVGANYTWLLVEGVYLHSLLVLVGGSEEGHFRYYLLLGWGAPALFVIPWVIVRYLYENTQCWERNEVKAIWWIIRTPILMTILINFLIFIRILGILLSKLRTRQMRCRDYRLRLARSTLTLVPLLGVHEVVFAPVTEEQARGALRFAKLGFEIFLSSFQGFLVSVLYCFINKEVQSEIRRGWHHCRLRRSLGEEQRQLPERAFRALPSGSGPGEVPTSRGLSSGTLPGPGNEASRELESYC

human SNAP-tagged GLP-1R = molecular target: T4, human SNAP-tagged GLP-1R (Homo sapiens, UniProt P43220); experiment: Receptor internalization assay, HEK293A cells expressing human SNAP-tagged GLP-1R; settings: for Absolute hGLP-1R internalization (AUC): AUC of sigmoid curves up to 1 μM, 60 minutes at 37° C.; for Relative hGLP-1R internalization (%): relative to hGLP-1 = 100
T4 construct: expressed in transfected cells; host or cells: HEK293A
T4 sequence (P43220 24-463): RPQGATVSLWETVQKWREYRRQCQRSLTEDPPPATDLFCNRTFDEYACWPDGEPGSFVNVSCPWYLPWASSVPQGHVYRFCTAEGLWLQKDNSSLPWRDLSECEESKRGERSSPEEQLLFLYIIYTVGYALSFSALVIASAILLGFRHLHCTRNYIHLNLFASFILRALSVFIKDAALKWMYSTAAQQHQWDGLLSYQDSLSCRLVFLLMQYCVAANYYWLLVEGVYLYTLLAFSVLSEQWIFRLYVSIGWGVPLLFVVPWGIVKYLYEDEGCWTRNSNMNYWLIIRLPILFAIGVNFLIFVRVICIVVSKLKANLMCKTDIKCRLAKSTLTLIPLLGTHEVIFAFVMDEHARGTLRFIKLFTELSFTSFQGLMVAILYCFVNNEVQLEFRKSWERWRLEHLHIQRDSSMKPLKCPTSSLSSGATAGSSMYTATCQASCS

human GIPR = molecular target: T5, human GIPR (Homo sapiens, UniProt P48546); experiment: cAMP assay (HitHunter) in transiently transfected COS-7 cells expressing human GIPR
T5 construct: host or cells: COS-7
T5 sequence (P48546 22-466): T3 sequence (P48546 22-466)

human GLP-1R = molecular target: T6, human GLP-1R (Homo sapiens, UniProt P43220); experiment: cAMP assay (HitHunter) in transiently transfected COS-7 cells expressing human GLP-1R
T6 construct: host or cells: COS-7
T6 sequence (P43220 24-463): as above

[1] = molecular target: human glucagon receptor (GCGR) (Homo sapiens, UniProt P47871); experiment: Gs activation measured as cAMP accumulation on human glucagon receptor (FIG. 1 radar plot); settings: read-out: −p Log EC50 on human glucagon receptor (GCGR) (converted)
Sequence of human glucagon receptor (GCGR) (P47871 26-477): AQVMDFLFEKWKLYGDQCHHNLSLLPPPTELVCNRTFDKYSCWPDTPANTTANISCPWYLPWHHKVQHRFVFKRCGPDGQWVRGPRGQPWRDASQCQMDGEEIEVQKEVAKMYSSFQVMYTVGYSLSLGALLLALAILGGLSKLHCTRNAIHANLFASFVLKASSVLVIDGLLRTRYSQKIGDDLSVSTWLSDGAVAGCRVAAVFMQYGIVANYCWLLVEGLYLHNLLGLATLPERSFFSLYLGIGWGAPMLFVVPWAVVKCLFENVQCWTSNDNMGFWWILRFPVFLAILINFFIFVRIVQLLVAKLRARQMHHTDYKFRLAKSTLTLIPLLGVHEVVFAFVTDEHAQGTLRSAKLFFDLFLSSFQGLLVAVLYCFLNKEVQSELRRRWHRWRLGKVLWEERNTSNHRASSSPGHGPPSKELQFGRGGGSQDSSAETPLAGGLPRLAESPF
Source text: Here, the compounds 20, 21, 22, 28, 30, 31,32, 33, 34, 35 are shown in terms of their potencies in Gs activation, measured as CAMP accumulation, depicted in a radar plot. The numbers refer to −p Log EC50 values. […] The outer rings correspond to higher potencies, the inner rings correspond to lower potencies.

[2] = COS-7, read-out: Efficacy GLP-2R (Emax)
[3] = COS-7, read-out: Efficacy GIPR (Emax)
[4] = COS-7, read-out: Efficacy GLP-1R (Emax)

Row | Emax (human GLP-2R; COS-7, normalized to highest concentration of the endogenous ligand, read-out: Efficacy GLP-2R (Emax)) [%] | EC50 (human GLP-2R; cAMP, COS-7 cells, human GLP-2R, read-out: EC50 (nM) GLP-2R) [nM] | Absolute hGIPR internalization (AUC) (human SNAP-tagged GIPR; AUC of sigmoid curves up to 1 μM, 60 minutes at 37° C.) | Relative hGIPR internalization (%) (human SNAP-tagged GIPR; relative to hGIP 1-42 = 100) | Emax (human GIPR; COS-7, normalized to highest concentration of the endogenous ligand, read-out: Efficacy GIPR (Emax)) [%] | loss in GIP potency in cAMP (human GIPR; fatty acid in position 17 compared to position 16 (Compound 30)) [fold] | Emax (human GLP-1R; COS-7, normalized to highest concentration of the endogenous ligand, read-out: Efficacy GLP-1R (Emax)) [%] | SMILES | Absolute hGLP-2R internalization (AUC) (human SNP-tagged GLP-2R) | Relative hGLP-2R internalization (%) (human SNP-tagged GLP-2R) | Absolute hGLP-1R internalization (AUC) (human SNAP-tagged GLP-1R) | Relative hGLP-1R internalization (%) (human SNAP-tagged GLP-1R) | EC50 [1] [nM] | Emax (human GLP-2R; [2]) [%] | Absolute hGIPR internalization (AUC) (human SNAP-tagged GIPR) | Relative hGIPR internalization (%) (human SNAP-tagged GIPR) | Emax (human GIPR; [3]) [%] | Emax (human GLP-1R; [4]) [%]
1 | 77 | 3.2 | 6.5 | 18 | 80 | > 10 | 84 | CC[C@H](C)[C@H](NC(=O)[C@H](Cc1ccccc1)NC(=O)[C@H](CC(=O)O)NC(=O)[C@H](CCCNC(=N)N)NC(=O)[C@H](C)NC(=O)[C@H](C)NC(=O)[C@H](CCCCNC(=O)COCCOCCNC(=O)COCCOCCNC(=O)CC[C@H](NC(=O)CCCCCCCCCCCCCCCCC(=O)O)C(=O)O)NC(=O)[C@H](CC(N)=O)NC(=O)[C@H](CC(=O)O)NC(=O)[C@H](CC(C)C)NC(=O)[C@@H](NC(=O)[C@@H](NC(=O)[C@H](CO)NC(=O)[C@H](Cc1ccc(O)cc1)NC(=O)[C@H](CC(=O)O)NC(=O)[C@H](CO)NC(=O)[C@@H](NC(=O)[C@H](Cc1ccccc1)NC(=O)[C@@H](NC(=O)CNC(=O)[C@H](CC(=O)O)NC(=O)[C@H](C)NC(=O)[C@@H](N)Cc1c[nH]cn1)[C@@H](C)O)[C@@H](C)CC)[C@@H](C)O)[C@@H](C)CC)C(=O)N[C@@H](CC(N)=O)C(=O)N[C@@H](Cc1c[nH]c2ccccc12)C(=O)N[C@@H](CC(C)C)C(=O)N[C@H](C(=O)N[C@@H](CCC(N)=O)C(=O)N[C@H](C(=O)N[C@@H](CCCCN)C(=O)NCC(=O)N[C@@H](CCCCN)C(=O)N[C@@H](CCCCN)C(=O)O)[C@@H](C)O)[C@@H](C)CC [Compound 32] (H-HADGTFISDYSTILDNK([AEEA-AEEA-γGlu-C18 diacid])AARDFINWLIQTKGKK-OH) | 15.0 | 30.8 | 7.0 | 8.3 | > 100 |  |  |  |  | 
2 |  |  |  |  |  |  |  | CC[C@H](C)[C@H](NC(=O)[C@H](Cc1ccccc1)NC(=O)[C@H](CC(=O)O)NC(=O)[C@H](CCCNC(=N)N)NC(=O)[C@H](C)NC(=O)[C@H](C)NC(=O)[C@H](CC(C)C)NC(=O)[C@H](CC(N)=O)NC(=O)[C@H](CC(=O)O)NC(=O)[C@H](CC(C)C)NC(=O)[C@@H](NC(=O)[C@@H](NC(=O)[C@H](CO)NC(=O)[C@H](Cc1ccc(O)cc1)NC(=O)[C@H](CC(=O)O)NC(=O)[C@H](CO)NC(=O)[C@@H](NC(=O)[C@H](Cc1ccccc1)NC(=O)[C@@H](NC(=O)CNC(=O)[C@H](CC(=O)O)NC(=O)[C@H](C)NC(=O)[C@@H](N)Cc1c[nH]cn1)[C@@H](C)O)[C@@H](C)CC)[C@@H](C)O)[C@@H](C)CC)C(=O)N[C@@H](CC(N)=O)C(=O)N[C@@H](Cc1c[nH]c2ccccc12)C(=O)N[C@@H](CC(C)C)C(=O)N[C@H](C(=O)N[C@@H](CCC(N)=O)C(=O)N[C@H](C(=O)N[C@@H](CCCCN)C(=O)NCC(=O)N[C@@H](CCCCN)C(=O)N[C@@H](CCCCNC(=O)COCCOCCNC(=O)COCCOCCNC(=O)CC[C@H](NC(=O)CCCCCCCCCCCCCCCCC(=O)O)C(=O)O)C(=O)O)[C@@H](C)O)[C@@H](C)CC [Compound 33] | 6.4 | 13.2 | 6.4 | 7.7 | > 100 | 90 | 15.8 | 43% | 88 | 99
3 |  |  |  |  |  |  |  | CC[C@H](C)[C@H](NC(=O)[C@H](Cc1ccccc1)NC(=O)[C@H](CC(=O)O)NC(=O)[C@H](CCCNC(=N)N)NC(=O)[C@H](C)NC(=O)[C@H](C)NC(=O)[C@H](CC(C)C)NC(=O)[C@H](CC(N)=O)NC(=O)[C@H](CC(=O)O)NC(=O)[C@H](CC(C)C)NC(=O)C(C)(C)NC(=O)[C@@H](NC(=O)[C@H](CO)NC(=O)[C@H](Cc1ccc(O)cc1)NC(=O)[C@H](CC(=O)O)NC(=O)[C@H](CO)NC(=O)[C@@H](NC(=O)[C@H](Cc1ccccc1)NC(=O)[C@@H](NC(=O)CNC(=O)[C@H](CC(=O)O)NC(=O)[C@H](C)NC(=O)[C@@H](N)Cc1c[nH]cn1)[C@@H](C)O)[C@@H](C)CC)[C@@H](C)O)C(=O)N[C@@H](CC(N)=O)C(=O)N[C@@H](Cc1c[nH]c2ccccc12)C(=O)N[C@@H](CC(C)C)C(=O)N[C@H](C(=O)N[C@@H](CCC(N)=O)C(=O)N[C@H](C(=O)N[C@@H](CCCCN)C(=O)NCC(=O)N[C@@H](CCCCN)C(=O)N[C@@H](CCCCN)C(=O)N[C@@H](CCCCNC(=O)COCCOCCNC(=O)COCCOCCNC(=O)CC[C@H](NC(=O)CCCCCCCCCCCCCCCCC(=O)O)C(=O)O)C(=O)O)[C@@H](C)O)[C@@H](C)CC [Compound 35] | 7.6 | 15.7 | 2.0 | 2.4 | > 100 | 93 | 14.3 | 39% and 38% | 99 | 92
